Assay results published in PubChem BioAssay AID1963825 (Molecular Pharmacology Branch, DTP, NCI, 2024).

Assay: Anticancer human tumor 997537-175-T-J1-PDC patient-derived colon adenocarcinoma cell line growth inhibition [POLQ]
Conditions: 997537-175-T-J1-PDC complex spheroid viability, combination with POLQ inhibitors; second compound 0.316 µM; first compound 1 µM; active compounds read low
Method in brief: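 Growth inhibition in 3D: complex spheroids (tumor PDC, HUVEC, MSC) treated with POLQ inhibitor combinations; where Cmax unknown, highest tested concentration 10 microM, except SN-38 at 1 microM.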
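Note: luminescence signal used as a surrogate for viable cells; spheroids exposed to drugs for seven days before readout.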

**Q.** Which viability, T/C does the source give for `COc1cccc2c1C(=O)c1c(O)c3c(c(O)c1C2=O)CC(O)(C(=O)CO)CC3OC1CC(N)C(O)C(C)O1` (stereo unspecified) + Nc1ccc(C#CCN(C(=O)Cc2ncc(C(F)(F)F)cc2C(F)(F)F)c2ccc(F)cc2)nn1 here?
**A.** 87.7%

**Q.** With `COc1cc(C2c3cc4c(cc3C(OC3OC5COC(C)OC5C(O)C3O)C3COC(=O)C23)OCO4)cc(OC)c1O` (stereo unspecified) + Cc1cccc(N(C)C(=O)C2C(O)CCN2c2nc(C)cc(C(F)(F)F)c2C#N)c1 as the compound, how does the viability, T/C read?
**A.** 97.2%

**Q.** With `CC1COCCN1c1cc(C2(S(C)(=N)=O)CC2)nc(-c2ccnc3[nH]ccc23)n1` (stereo unspecified) + COC1C(OC(N)=O)C(O)C(Oc2ccc3c(O)c(NC(=O)c4ccc(O)c(CC=C(C)C)c4)c(=O)oc3c2C)OC1(C)C as the compound, how does the viability, T/C read?
**A.** 94.2%

Same assay, conditions: 997537-175-T-J1-PDC complex spheroid viability, combination with POLQ inhibitors; second compound 0.316 µM; first compound 3.16 µM; active compounds read low

**Q.** Which viability, T/C does the source give for `COc1cccc2c1C(=O)c1c(O)c3c(c(O)c1C2=O)CC(O)(C(=O)CO)CC3OC1CC(N)C(O)C(C)O1` (stereo unspecified) + Nc1ccc(C#CCN(C(=O)Cc2ncc(C(F)(F)F)cc2C(F)(F)F)c2ccc(F)cc2)nn1 here?
**A.** 53.2%

**Q.** Which viability, T/C does the source give for `COc1cc(C2c3cc4c(cc3C(OC3OC5COC(C)OC5C(O)C3O)C3COC(=O)C23)OCO4)cc(OC)c1O` (stereo unspecified) + Cc1cccc(N(C)C(=O)C2C(O)CCN2c2nc(C)cc(C(F)(F)F)c2C#N)c1 here?
**A.** 85%

**Q.** For `CC1COCCN1c1cc(C2(S(C)(=N)=O)CC2)nc(-c2ccnc3[nH]ccc23)n1` (stereo unspecified) + COC1C(OC(N)=O)C(O)C(Oc2ccc3c(O)c(NC(=O)c4ccc(O)c(CC=C(C)C)c4)c(=O)oc3c2C)OC1(C)C, which viability, T/C is on record?
**A.** 77.7%

Same assay, conditions: 997537-175-T-J1-PDC complex spheroid viability, combination with POLQ inhibitors; second compound 0.316 µM; first compound 10 µM; active compounds read low

**Q.** With `COc1cccc2c1C(=O)c1c(O)c3c(c(O)c1C2=O)CC(O)(C(=O)CO)CC3OC1CC(N)C(O)C(C)O1` (stereo unspecified) + Nc1ccc(C#CCN(C(=O)Cc2ncc(C(F)(F)F)cc2C(F)(F)F)c2ccc(F)cc2)nn1 as the compound, how does the viability, T/C read?
**A.** 13.9%

**Q.** Which viability, T/C does the source give for `COc1cc(C2c3cc4c(cc3C(OC3OC5COC(C)OC5C(O)C3O)C3COC(=O)C23)OCO4)cc(OC)c1O` (stereo unspecified) + Cc1cccc(N(C)C(=O)C2C(O)CCN2c2nc(C)cc(C(F)(F)F)c2C#N)c1 here?
**A.** 52.8%

**Q.** With `CC1COCCN1c1cc(C2(S(C)(=N)=O)CC2)nc(-c2ccnc3[nH]ccc23)n1` (stereo unspecified) + COC1C(OC(N)=O)C(O)C(Oc2ccc3c(O)c(NC(=O)c4ccc(O)c(CC=C(C)C)c4)c(=O)oc3c2C)OC1(C)C as the compound, how does the viability, T/C read?
**A.** 54.7%

Same assay, conditions: 997537-175-T-J1-PDC complex spheroid viability, combination with POLQ inhibitors; second compound 1 µM; first compound 0.0316 µM; active compounds read low

**Q.** Which viability, T/C does the source give for `COc1cccc2c1C(=O)c1c(O)c3c(c(O)c1C2=O)CC(O)(C(=O)CO)CC3OC1CC(N)C(O)C(C)O1` (stereo unspecified) + Nc1ccc(C#CCN(C(=O)Cc2ncc(C(F)(F)F)cc2C(F)(F)F)c2ccc(F)cc2)nn1 here?
**A.** 94.1%

**Q.** For `COc1cc(C2c3cc4c(cc3C(OC3OC5COC(C)OC5C(O)C3O)C3COC(=O)C23)OCO4)cc(OC)c1O` (stereo unspecified) + Cc1cccc(N(C)C(=O)C2C(O)CCN2c2nc(C)cc(C(F)(F)F)c2C#N)c1, which viability, T/C is on record?
**A.** 103%

**Q.** For `CC1COCCN1c1cc(C2(S(C)(=N)=O)CC2)nc(-c2ccnc3[nH]ccc23)n1` (stereo unspecified) + COC1C(OC(N)=O)C(O)C(Oc2ccc3c(O)c(NC(=O)c4ccc(O)c(CC=C(C)C)c4)c(=O)oc3c2C)OC1(C)C, which viability, T/C is on record?
**A.** 110%

Same assay, conditions: 997537-175-T-J1-PDC complex spheroid viability, combination with POLQ inhibitors; second compound 1 µM; first compound 0.1 µM; active compounds read low

**Q.** For `COc1cccc2c1C(=O)c1c(O)c3c(c(O)c1C2=O)CC(O)(C(=O)CO)CC3OC1CC(N)C(O)C(C)O1` (stereo unspecified) + Nc1ccc(C#CCN(C(=O)Cc2ncc(C(F)(F)F)cc2C(F)(F)F)c2ccc(F)cc2)nn1, which viability, T/C is on record?
**A.** 109%

**Q.** With `COc1cc(C2c3cc4c(cc3C(OC3OC5COC(C)OC5C(O)C3O)C3COC(=O)C23)OCO4)cc(OC)c1O` (stereo unspecified) + Cc1cccc(N(C)C(=O)C2C(O)CCN2c2nc(C)cc(C(F)(F)F)c2C#N)c1 as the compound, how does the viability, T/C read?
**A.** 105%

**Q.** With `CC1COCCN1c1cc(C2(S(C)(=N)=O)CC2)nc(-c2ccnc3[nH]ccc23)n1` (stereo unspecified) + COC1C(OC(N)=O)C(O)C(Oc2ccc3c(O)c(NC(=O)c4ccc(O)c(CC=C(C)C)c4)c(=O)oc3c2C)OC1(C)C as the compound, how does the viability, T/C read?
**A.** 92.7%

Same assay, conditions: 997537-175-T-J1-PDC complex spheroid viability, combination with POLQ inhibitors; second compound 1 µM; first compound 0.316 µM; active compounds read low

**Q.** For `COc1cccc2c1C(=O)c1c(O)c3c(c(O)c1C2=O)CC(O)(C(=O)CO)CC3OC1CC(N)C(O)C(C)O1` (stereo unspecified) + Nc1ccc(C#CCN(C(=O)Cc2ncc(C(F)(F)F)cc2C(F)(F)F)c2ccc(F)cc2)nn1, which viability, T/C is on record?
**A.** 81.8%

**Q.** With `COc1cc(C2c3cc4c(cc3C(OC3OC5COC(C)OC5C(O)C3O)C3COC(=O)C23)OCO4)cc(OC)c1O` (stereo unspecified) + Cc1cccc(N(C)C(=O)C2C(O)CCN2c2nc(C)cc(C(F)(F)F)c2C#N)c1 as the compound, how does the viability, T/C read?
**A.** 104%

**Q.** For `CC1COCCN1c1cc(C2(S(C)(=N)=O)CC2)nc(-c2ccnc3[nH]ccc23)n1` (stereo unspecified) + COC1C(OC(N)=O)C(O)C(Oc2ccc3c(O)c(NC(=O)c4ccc(O)c(CC=C(C)C)c4)c(=O)oc3c2C)OC1(C)C, which viability, T/C is on record?
**A.** 102%

Same assay, conditions: 997537-175-T-J1-PDC complex spheroid viability, combination with POLQ inhibitors; second compound 1 µM; first compound 1 µM; active compounds read low

**Q.** With `COc1cccc2c1C(=O)c1c(O)c3c(c(O)c1C2=O)CC(O)(C(=O)CO)CC3OC1CC(N)C(O)C(C)O1` (stereo unspecified) + Nc1ccc(C#CCN(C(=O)Cc2ncc(C(F)(F)F)cc2C(F)(F)F)c2ccc(F)cc2)nn1 as the compound, how does the viability, T/C read?
**A.** 79.5%

**Q.** Which viability, T/C does the source give for `COc1cc(C2c3cc4c(cc3C(OC3OC5COC(C)OC5C(O)C3O)C3COC(=O)C23)OCO4)cc(OC)c1O` (stereo unspecified) + Cc1cccc(N(C)C(=O)C2C(O)CCN2c2nc(C)cc(C(F)(F)F)c2C#N)c1 here?
**A.** 110%

**Q.** For `CC1COCCN1c1cc(C2(S(C)(=N)=O)CC2)nc(-c2ccnc3[nH]ccc23)n1` (stereo unspecified) + COC1C(OC(N)=O)C(O)C(Oc2ccc3c(O)c(NC(=O)c4ccc(O)c(CC=C(C)C)c4)c(=O)oc3c2C)OC1(C)C, which viability, T/C is on record?
**A.** 106%

Same assay, conditions: 997537-175-T-J1-PDC complex spheroid viability, combination with POLQ inhibitors; second compound 1 µM; first compound 3.16 µM; active compounds read low

**Q.** With `COc1cccc2c1C(=O)c1c(O)c3c(c(O)c1C2=O)CC(O)(C(=O)CO)CC3OC1CC(N)C(O)C(C)O1` (stereo unspecified) + Nc1ccc(C#CCN(C(=O)Cc2ncc(C(F)(F)F)cc2C(F)(F)F)c2ccc(F)cc2)nn1 as the compound, how does the viability, T/C read?
**A.** 34.8%

**Q.** For `COc1cc(C2c3cc4c(cc3C(OC3OC5COC(C)OC5C(O)C3O)C3COC(=O)C23)OCO4)cc(OC)c1O` (stereo unspecified) + Cc1cccc(N(C)C(=O)C2C(O)CCN2c2nc(C)cc(C(F)(F)F)c2C#N)c1, which viability, T/C is on record?
**A.** 82%

**Q.** Which viability, T/C does the source give for `CC1COCCN1c1cc(C2(S(C)(=N)=O)CC2)nc(-c2ccnc3[nH]ccc23)n1` (stereo unspecified) + COC1C(OC(N)=O)C(O)C(Oc2ccc3c(O)c(NC(=O)c4ccc(O)c(CC=C(C)C)c4)c(=O)oc3c2C)OC1(C)C here?
**A.** 67%

Same assay, conditions: 997537-175-T-J1-PDC complex spheroid viability, combination with POLQ inhibitors; second compound 1 µM; first compound 10 µM; active compounds read low

**Q.** With `COc1cccc2c1C(=O)c1c(O)c3c(c(O)c1C2=O)CC(O)(C(=O)CO)CC3OC1CC(N)C(O)C(C)O1` (stereo unspecified) + Nc1ccc(C#CCN(C(=O)Cc2ncc(C(F)(F)F)cc2C(F)(F)F)c2ccc(F)cc2)nn1 as the compound, how does the viability, T/C read?
**A.** 10.2%

**Q.** Which viability, T/C does the source give for `COc1cc(C2c3cc4c(cc3C(OC3OC5COC(C)OC5C(O)C3O)C3COC(=O)C23)OCO4)cc(OC)c1O` (stereo unspecified) + Cc1cccc(N(C)C(=O)C2C(O)CCN2c2nc(C)cc(C(F)(F)F)c2C#N)c1 here?
**A.** 51.2%

**Q.** Which viability, T/C does the source give for `CC1COCCN1c1cc(C2(S(C)(=N)=O)CC2)nc(-c2ccnc3[nH]ccc23)n1` (stereo unspecified) + COC1C(OC(N)=O)C(O)C(Oc2ccc3c(O)c(NC(=O)c4ccc(O)c(CC=C(C)C)c4)c(=O)oc3c2C)OC1(C)C here?
**A.** 56.4%

Same assay, conditions: 997537-175-T-J1-PDC complex spheroid viability, combination with POLQ inhibitors; second compound 3.16 µM; first compound 0.0316 µM; active compounds read low

**Q.** For `COc1cccc2c1C(=O)c1c(O)c3c(c(O)c1C2=O)CC(O)(C(=O)CO)CC3OC1CC(N)C(O)C(C)O1` (stereo unspecified) + Nc1ccc(C#CCN(C(=O)Cc2ncc(C(F)(F)F)cc2C(F)(F)F)c2ccc(F)cc2)nn1, which viability, T/C is on record?
**A.** 94.4%

**Q.** For `COc1cc(C2c3cc4c(cc3C(OC3OC5COC(C)OC5C(O)C3O)C3COC(=O)C23)OCO4)cc(OC)c1O` (stereo unspecified) + Cc1cccc(N(C)C(=O)C2C(O)CCN2c2nc(C)cc(C(F)(F)F)c2C#N)c1, which viability, T/C is on record?
**A.** 89.5%

**Q.** For `CC1COCCN1c1cc(C2(S(C)(=N)=O)CC2)nc(-c2ccnc3[nH]ccc23)n1` (stereo unspecified) + COC1C(OC(N)=O)C(O)C(Oc2ccc3c(O)c(NC(=O)c4ccc(O)c(CC=C(C)C)c4)c(=O)oc3c2C)OC1(C)C, which viability, T/C is on record?
**A.** 109%

Same assay, conditions: 997537-175-T-J1-PDC complex spheroid viability, combination with POLQ inhibitors; second compound 3.16 µM; first compound 0.1 µM; active compounds read low

**Q.** For `COc1cccc2c1C(=O)c1c(O)c3c(c(O)c1C2=O)CC(O)(C(=O)CO)CC3OC1CC(N)C(O)C(C)O1` (stereo unspecified) + Nc1ccc(C#CCN(C(=O)Cc2ncc(C(F)(F)F)cc2C(F)(F)F)c2ccc(F)cc2)nn1, which viability, T/C is on record?
**A.** 107%
